Tests used:
[1] = tested on: α-Glucosidase from Saccharomyces cerevisiae; test: α-glucosidase inhibition assay (pNPG substrate); format: biochemical; details: for % inhibition R1: replicate 1; for % inhibition R3: replicate 3; for % Inhibition: fixed concentration of 100 µM, mean of triplicate (± SD); for Observation (activity level, Table S9) / Observation (inhibition level, Table S7): words, based on % inhibition at 100 µM; for IC50: dose-response, mean ± SD
Procedure: The α-glucosidase inhibitory activity of 4a–j was evaluated using a standard enzymatic assay. α-Glucosidase from Saccharomyces cerevisiae was employed as the enzyme source, and p-nitrophenyl-α-D-glucopyranoside (pNPG) served as the substrate. The assay was conducted in a 96-well microplate format at 37 °C in 50 mM phosphate buffer (pH 6.8). Briefly, 10 µL of the test compound (dissolved in DMSO) at various concentrations was mixed with 20 µL of the enzyme solution (1 U/mL) and 50 µL of phosphate buffer. The reaction was initiated by adding 20 µL of pNPG (5 mM), and the mixture was incubated for 30 min. The reaction was terminated by adding 50 µL of 0.1 M Na2CO3, and the absorbance of the released p-nitrophenol was measured at […] using a microplate reader. […] All experiments were performed in triplicate, and the results were expressed as mean ± standard deviation (SD). Statistical significance was evaluated using one-way ANOVA followed by Tukey’s post hoc test.

α-glucosidase = target: α-glucosidase; design: method as in PMID 26398141; details: cited from earlier work

Structure (SMILES)	% inhibition R1 ([1]; 100 µM) [%]	% inhibition R3 ([1]; 100 µM) [%]	% Inhibition [1] [%]	Observation (activity level, Table S9) [1]	Observation (inhibition level, Table S7) [1]	% Inhibition ([1]; 100 µM) [%]	IC50 [1] [µM]	IC50 (α-glucosidase) [µM]
COc1ccc2[nH]c(C(=O)N/N=C/c3nccs3)cc2c1 [4a, (E)-5-Methoxy-N’-(thiazol-2-ylmethylene)-1H-indole-2-carbohydrazide]	41.141	33.393	31.75 ± 8.42	Low activity	Low inhibition	–	–	–
COc1ccc2[nH]c(C(=O)N/N=C/c3cccnc3)cc2c1 [4b, (E)-5-Methoxy-N’-(pyridin-3-ylmethylene)-1H-indole-2-carbohydrazide]	34.129	27.265	–	Low activity	Low inhibition	25.37	–	–
COc1ccc2[nH]c(C(=O)N/N=C/c3ccc(O)cc3)cc2c1 [4c, (E)-N’-(4-Hydroxybenzylidene)-5-methoxy-1H-indole-2-carbohydrazide]	39.907	37.768	32.51 ± 8.99	Moderate activity	Moderate inhibition	–	–	–
COc1ccc2[nH]c(C(=O)N/N=C/c3ccc(O)c([N+](=O)[O-])c3)cc2c1 [4d, (E)-N’-(4-Hydroxy-3-nitrobenzylidene)-5-methoxy-1H-indole-2-carbohydrazide]	37.425	28.540	27.97 ± 7.96	Low activity	Low inhibition	–	–	–
COc1ccc(/C=N/NC(=O)c2cc3cc(OC)ccc3[nH]2)c(O)c1 [4e, (E)-N’-(2-Hydroxy-4-methoxybenzylidene)-5-methoxy-1H-indole-2-carbohydrazide]	87.826	81.926	82.21 ± 4.47	High activity	Good inhibition	–	16.42 ± 0.08	–
COc1ccc2[nH]c(C(=O)N/N=C/c3ccccc3F)cc2c1 [4f, (E)-N’-(2-Fluorobenzylidene)-5-methoxy-1H-indole-2-carbohydrazide]	54.885	51.513	50.65 ± 3.86	Moderate activity	Moderate inhibition	–	–	–
COc1ccc2[nH]c(C(=O)N/N=C/c3cccc(Br)c3)cc2c1 [4g, (E)-N’-(3-Bromobenzylidene)-5-methoxy-1H-indole-2-carbohydrazide]	92.817	90.041	91.06 ± 1.25	High activity	High inhibition	–	10.89 ± 0.08	–
COc1ccc2[nH]c(C(=O)N/N=C/c3ccc([N+](=O)[O-])cc3)cc2c1 [4h, (E)-5-Methoxy-N’-(4-nitrobenzylidene)-1H-indole-2-carbohydrazide]	90.888	88.949	89.11 ± 1.39	High activity	High inhibition	–	14.5 ± 0.76	–
COc1ccc2[nH]c(C(=O)N/N=C/c3ccc4ccccc4c3)cc2c1 [4i, (E)-5-Methoxy-N’-(naphthalen-2-ylmethylene)-1H-indole-2-carbohydrazide]	84.106	84.052	82.73 ± 1.90	High activity	Good inhibition	–	19.5 ± 1.37	–
COc1ccc2[nH]c(C(=O)N/N=C/c3ccccc3)cc2c1 [4j, (E)-N’-Benzylidene-5-methoxy-1H-indole-2-carbohydrazide]	56.471	49.039	53.23 ± 3.11	Moderate activity	Moderate inhibition	–	–	–
O=C(N/N=C/c1cc(O)c(O)c(O)c1)c1cc2ccccc2[nH]1 [(E)-N’-(3,4,5-Trihydroxybenzylidene)-1H-indole-2-carbohydrazide]	–	–	–	–	–	–	–	2.3
C[C@H]1O[C@H](O[C@H]2[C@H](O)[C@@H](O)[C@@H](O[C@H]3[C@H](O)[C@@H](O)C(O)O[C@@H]3CO)O[C@@H]2CO)[C@H](O)[C@@H](O)[C@@H]1N[C@H]1C=C(CO)[C@@H](O)[C@H](O)[C@H]1O (stereo partly shown) [Acarbose, acarbose, reference compound]	84.457	85.609	84.66 ± 0.71	–	–	–	–	–
